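1) Cells in 96-well plates. 2) Compound, 48 h, 5 concentrations. 3) Linear interpolation between surrounding doses. 4) Unreached endpoint = highest concentration. At the GI50, growth is halved. At the TGI there is no net growth.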
Key:
Assay in all cases: NCI tumour cell line growth inhibition, 48 h
NCI-H522 lung = tested on: NCI-H522 lung
NCI-H460 lung = tested on: NCI-H460 lung
HT29 colon = tested on: HT29 colon
U251 CNS = tested on: U251 CNS
IGROV1 ovarian = tested on: IGROV1 ovarian
SK-OV-3 ovarian = tested on: SK-OV-3 ovarian
SNB-19 CNS = tested on: SNB-19 CNS
A549 NSCLC = tested on: A549 NSCLC
SW-620 colon = tested on: SW-620 colon
MCF7 breast = tested on: MCF7 breast
K-562 leukemia = tested on: K-562 leukemia
786-0 renal = tested on: 786-0 renal
CAKI-1 renal = tested on: CAKI-1 renal
EKVX NSCLC = tested on: EKVX NSCLC
HS 578T breast = tested on: HS 578T breast
NCI-H23 lung = tested on: NCI-H23 lung
M14 melanoma = tested on: M14 melanoma
BT-549 breast = tested on: BT-549 breast
HL-60(TB) leukemia = tested on: HL-60(TB) leukemia
PC-3 prostate = tested on: PC-3 prostate
A498 renal = tested on: A498 renal
UACC-257 melanoma = tested on: UACC-257 melanoma
T-47D breast = tested on: T-47D breast
SF-268 CNS = tested on: SF-268 CNS
UACC-62 melanoma = tested on: UACC-62 melanoma
HOP-62 NSCLC = tested on: HOP-62 NSCLC
NCI/ADR-RES ovarian = tested on: NCI/ADR-RES ovarian
SK-MEL-5 melanoma = tested on: SK-MEL-5 melanoma
RPMI-8226 leukemia = tested on: RPMI-8226 leukemia
DU-145 prostate = tested on: DU-145 prostate
MDA-MB-231 breast = tested on: MDA-MB-231 breast
KM12 colon = tested on: KM12 colon
MOLT-4 leukemia = tested on: MOLT-4 leukemia
MDA-MB-435 = tested on: MDA-MB-435
COLO 205 colon = tested on: COLO 205 colon
HCT-15 colon = tested on: HCT-15 colon
OVCAR-4 ovarian = tested on: OVCAR-4 ovarian
ACHN renal = tested on: ACHN renal
SF-295 CNS = tested on: SF-295 CNS
HCT-116 colon = tested on: HCT-116 colon
SN12C renal = tested on: SN12C renal
CCRF-CEM leukemia = tested on: CCRF-CEM leukemia
HOP-92 NSCLC = tested on: HOP-92 NSCLC
NCI-H226 lung = tested on: NCI-H226 lung
TK-10 renal = tested on: TK-10 renal
SF-539 CNS = tested on: SF-539 CNS
OVCAR-5 ovarian = tested on: OVCAR-5 ovarian
RXF 393 renal = tested on: RXF 393 renal
MDA-N = tested on: MDA-N
OVCAR-8 ovarian = tested on: OVCAR-8 ovarian
OVCAR-3 ovarian = tested on: OVCAR-3 ovarian
LOX IMVI melanoma = tested on: LOX IMVI melanoma
SNB-75 CNS = tested on: SNB-75 CNS
UO-31 renal = tested on: UO-31 renal

CC(=O)[O][Bi]([c]1ccccc1)[c]1ccccc1
GI50 (NCI-H522 lung): 1.56 µM
TGI (NCI-H522 lung): 3.11 µM
GI50 (NCI-H460 lung): 18.1 µM
TGI (NCI-H460 lung): 36.4 µM
GI50 (HT29 colon): 18.1 µM
TGI (HT29 colon): 32.3 µM
GI50 (U251 CNS): 2.6 µM
TGI (U251 CNS): 10.9 µM
GI50 (IGROV1 ovarian): 2.48 µM
TGI (IGROV1 ovarian): 6.77 µM
GI50 (SK-OV-3 ovarian): 16.6 µM
TGI (SK-OV-3 ovarian): 30.5 µM
GI50 (SNB-19 CNS): 12.6 µM
TGI (SNB-19 CNS): 26.8 µM
GI50 (A549 NSCLC): 25.5 µM
TGI (A549 NSCLC): 86.7 µM
GI50 (SW-620 colon): 2.27 µM
TGI (SW-620 colon): 5.45 µM
GI50 (MCF7 breast): 2.62 µM
TGI (MCF7 breast): 7.97 µM
GI50 (K-562 leukemia): 2.75 µM
TGI (K-562 leukemia): 14.5 µM
GI50 (786-0 renal): 2.96 µM
TGI (786-0 renal): 9.6 µM
GI50 (CAKI-1 renal): 11.1 µM
TGI (CAKI-1 renal): 26.2 µM
GI50 (EKVX NSCLC): 19.4 µM
TGI (EKVX NSCLC): 34.5 µM
GI50 (HS 578T breast): 24.9 µM
TGI (HS 578T breast): 71.9 µM
GI50 (NCI-H23 lung): 11.5 µM
TGI (NCI-H23 lung): 27.8 µM
GI50 (M14 melanoma): 11.4 µM
TGI (M14 melanoma): 24.5 µM
GI50 (BT-549 breast): 2.94 µM
TGI (BT-549 breast): 9.32 µM
GI50 (HL-60(TB) leukemia): 3.54 µM
TGI (HL-60(TB) leukemia): 23.5 µM
GI50 (PC-3 prostate): 16.1 µM
TGI (PC-3 prostate): 30.7 µM
GI50 (A498 renal): 18.2 µM
TGI (A498 renal): 32.4 µM
GI50 (UACC-257 melanoma): 11.2 µM
TGI (UACC-257 melanoma): 23.6 µM
GI50 (T-47D breast): 5.61 µM
TGI (T-47D breast): > 100 µM
GI50 (SF-268 CNS): 14.4 µM
TGI (SF-268 CNS): 29.9 µM
GI50 (UACC-62 melanoma): 11.6 µM
TGI (UACC-62 melanoma): 24.1 µM
GI50 (HOP-62 NSCLC): 17 µM
TGI (HOP-62 NSCLC): 33.8 µM
GI50 (NCI/ADR-RES ovarian): 19.1 µM
TGI (NCI/ADR-RES ovarian): 37.5 µM
GI50 (SK-MEL-5 melanoma): 12.8 µM
TGI (SK-MEL-5 melanoma): 25.9 µM
GI50 (RPMI-8226 leukemia): 2.59 µM
TGI (RPMI-8226 leukemia): 5.99 µM
GI50 (DU-145 prostate): 21.3 µM
TGI (DU-145 prostate): 50.2 µM
GI50 (MDA-MB-231 breast): 14.4 µM
TGI (MDA-MB-231 breast): 28.4 µM
GI50 (KM12 colon): 15.8 µM
TGI (KM12 colon): 30.1 µM
GI50 (MOLT-4 leukemia): 2.9 µM
TGI (MOLT-4 leukemia): > 100 µM
GI50 (MDA-MB-435): 7.26 µM
TGI (MDA-MB-435): 22.2 µM
GI50 (COLO 205 colon): 2.84 µM
TGI (COLO 205 colon): 7.27 µM
GI50 (HCT-15 colon): 1.92 µM
TGI (HCT-15 colon): 4.06 µM
GI50 (OVCAR-4 ovarian): 13.7 µM
TGI (OVCAR-4 ovarian): 27 µM
GI50 (ACHN renal): 11.8 µM
TGI (ACHN renal): 24.4 µM
GI50 (SF-295 CNS): 17.5 µM
TGI (SF-295 CNS): 33.4 µM
GI50 (HCT-116 colon): 4.29 µM
TGI (HCT-116 colon): 13.7 µM
GI50 (SN12C renal): 10.9 µM
TGI (SN12C renal): 23.6 µM
GI50 (CCRF-CEM leukemia): 2.27 µM
TGI (CCRF-CEM leukemia): 5 µM
GI50 (HOP-92 NSCLC): 1.33 µM
TGI (HOP-92 NSCLC): 4.28 µM
GI50 (NCI-H226 lung): 18.6 µM
TGI (NCI-H226 lung): 37.5 µM
GI50 (TK-10 renal): 1.85 µM
TGI (TK-10 renal): 6.38 µM
GI50 (SF-539 CNS): 11.1 µM
TGI (SF-539 CNS): 24.3 µM
GI50 (OVCAR-5 ovarian): 11.8 µM
TGI (OVCAR-5 ovarian): 26.3 µM
GI50 (RXF 393 renal): 2.45 µM
TGI (RXF 393 renal): 7.14 µM
GI50 (MDA-N): 7.57 µM
TGI (MDA-N): 20.3 µM
GI50 (OVCAR-8 ovarian): 16.4 µM
TGI (OVCAR-8 ovarian): 31 µM
GI50 (OVCAR-3 ovarian): 11.8 µM
TGI (OVCAR-3 ovarian): 34.3 µM
GI50 (LOX IMVI melanoma): 1.98 µM
TGI (LOX IMVI melanoma): 5.24 µM
GI50 (SNB-75 CNS): 16.4 µM
TGI (SNB-75 CNS): 30.2 µM
GI50 (UO-31 renal): 2.08 µM
TGI (UO-31 renal): 7.01 µM
